Measurements reported in patent US20090062309A1, “Therapeutic compositions for the treatment of cardiovascular diseases and methods for use therefor” (priority 2007, published 2009).
Where “and” joins values, the source holds several entries; their conditions need not be identical. Equal entries are not always repeated. Entries after “also recorded” stand apart in the source; their conditions may differ.

Key:
[1] = test system: subjects with CHD having decreased RBC K+ content; assay: Single-Blind Trial of Amiloride in Coronary Heart Disease During 2-Year Follow-Up; assay type: in vivo, human
Experimental: Subjects were evaluated by clinical (CCS angina Class, dyspnea, and arrhythmia). Other non CHD causes of chest pain, dyspnea, and arrhythmia had been ruled out. Safety control were serial ECG, non-invasive hemodynamics (DynaPulse 200A, CA, USA), Ion Transport Study (plasma and RBC electrolytes, 12-hour urine volume and electrolyte excretion, and plasma and urine creatinine and osmolality), BIA for Body Composition Analysis and estimation of Total Body K^+ (Quantum X, RJL Systems), and Clinical Biochemistry (FPG, Lipids, Uric acid), were measured at 1, 3, 6, 12, 18, 24 months follow-up period.
After written consent, each patient entered this single-blind trial directed to reverse or improve angina and other symptoms of CHD, as well as the ECG alterations of ischemia, and if possible in long-term assay, on improved LV motion/contractility in the echocardiography studies.
All cases had: a) Serial ECG for LVH by Cornell or Sokolow-Lyon Criteria (QRS duration times Cornell voltage: [R aVL+ SV3, with 6 mm added in women, >2440 mm×ms], Sokolow-Lyon voltage: [SV1+RV5/V6]> 38 mm; along with LV strain pattern [classical ST-segment depressed, with inverted T-waves], or LVH voltage criteria with mild LV strain pattern (isoelectric, biphasic or non-symmetrical negative T-waves, without ST-segment depression), and ECG criteria for infarction and/or ischemia (Q-waves from previous AMI, decreased R-wave height, non-progressive R-wave voltages in precordial leads, ST-segment elevation […] often referred as injury current, ST-segment depression […] often downsloping from the J point, rectification of the ST segment, and isoelectric, biphasic, negative or inverted T-waves, intraventricular conduction disturbance, and arrhythmias); b) Non-invasive hemodynamic study (DP200M) for cardiac parameters (LV Ejection Time [LVET], LV dP/dT (LV delta pressure-time), Cardiac output and index (CO, Cl), Stroke Volume (SV), Pulse Wave Analysis (PWA) of Central Aortic Blood Pressure [BP], Aortic Systolic (SBP), Diastolic (DBP) and mean (m) BP, Aortic augmentation index; inflection point and reflected wave analysis, Systemic Vascular Resistance and Compliance (SVR/SVC), and Brachial Artery Distensibility (BAD), Brachial Artery Compliance (BAC); c) Ion Transport Studies for RBC (K^+, Na^+) plasma (K^+, Na^+, Cl^−, ICa^2+, Mg^2+), and 12-hours night urinary volume (K^+, Na^+, Cl^−, pH), d) Bio-Impedance Analysis (BIA, Quantum X, RJL Systems, MI, USA) for Total body Potassium, Total body water/Extracellular Water, Fat Mass (FM) and Fat-Free Mass (FFM) and e) Echocardiography was obtained at entry, 6 and 12, 24 months periods.
The statistical analysis was performed using the Student's t-test and analysis of variance. To reduce the probability of significant differences arising by chance, Bonferroni's correction was applied following analysis of variance. All measurement are presented as the mean±S.D., and differences were considered significant when p<0.05.

[2] = test system: subjects with stable chronic angina
Experimental: A double blind placebo-controlled, randomized trial was conducted in 25 subjects with stable chronic angina. […] All of the subjects were evaluated before and after the double-blind trial, thereby measuring a subject's angina clinical score (CCS Angina Class), ECG, and exercise tolerance as assessed by the Duke Treadmill Score (DTS). Methods for using the DTS with patients in need of coronary intervention and its acceptance as an accurate predictor of cardiac morbidity and mortality in CHD and CAD patients has been well established. See for example Azeem T., et al., Int J. Clin. Pract. (2001), 55(1):10-13. […] Participants' clinical and cardiac parameters were evaluated either monthly, quarterly, half yearly and yearly.

[3] = cited from earlier work
[4] = 1-month trial, Amiloride 5 mg/d, N=14
[5] = 1-month, Amiloride 5 mg/d, N=14

**Q.** Which “Days for Improvement, Percentage (%)” value ([1]; 2-year trial, n=52) does the source give for `Cl.NC(N)=NC(=O)c1nc(Cl)c(N)nc1N.O.O` [Amiloride, 3,5-diamino-6-chloro-N-(diaminomethylene) pyrazinecarboxamide monohydrochloride, dihydrate] here?
**A.** 86.5%

**Q.** What about the “EGG Alterations: Improved Changes, Number” value ([1]; 2-year trial, n=52) of the same compound?
**A.** 23

**Q.** And the “EGG Alterations: Improved Changes, Percentage (%)” value ([1]; 2-year trial, n=52)?
**A.** 44.2%

**Q.** And the “EGG Alterations: Reverted to Normal, Number” value ([1]; 2-year trial, n=52)?
**A.** 18

**Q.** And the “EGG Alterations: Reverted to Normal, Percentage (%)” value ([1]; 2-year trial, n=52)?
**A.** 34.5%

**Q.** And the “EGG Alterations: Unchanged/Worst, Number” value ([1]; 2-year trial, n=52)?
**A.** 10

**Q.** What about the “EGG Alterations: Unchanged/Worst, Percentage (%)” value ([1]; 2-year trial, n=52) of the same compound?
**A.** 19.2%

**Q.** What about the “EGG Alterations: Weeks for Improvement” value ([1]; 2-year trial, n=52) of the same compound?
**A.** 3.4 ± 1.5 Weeks

**Q.** And the “EGG Alterations: Weeks for Improvement, Percentage (%)” value ([1]; 2-year trial, n=52)?
**A.** 61%

**Q.** And the “Echocardiographic Changes: Altered Hypokinesia, Number” value ([1]; 2-year trial, n=52)?
**A.** 34

**Q.** And the “Echocardiographic Changes: Altered Hypokinesia, Percentage (%)” value ([1]; 2-year trial, n=52)?
**A.** 65.5%

**Q.** And the “Echocardiographic Changes: Normal Contractility, Number” value ([1]; 2-year trial, n=52)?
**A.** 18

**Q.** What about the “Echocardiographic Changes: Normal Contractility, Percentage (%)” value ([1]; 2-year trial, n=52) of the same compound?
**A.** 34.5%

**Q.** What about the “Echocardiographic Changes: Reversed Hypokinesia, Number” value ([1]; 2-year trial, n=52) of the same compound?
**A.** 27

**Q.** And the “Echocardiographic Changes: Reversed Hypokinesia, Percentage (%)” value ([1]; 2-year trial, n=52)?
**A.** 52%

**Q.** What about the “Echocardiographic Changes: Unchanged Hypokinesia, Number” value ([1]; 2-year trial, n=52) of the same compound?
**A.** 7

**Q.** What about the “Echocardiographic Changes: Unchanged Hypokinesia, Percentage (%)” value ([1]; 2-year trial, n=52) of the same compound?
**A.** 13.5%

**Q.** What about the “Free of Angina (1-2 years), Number” value ([1]; 2-year trial, n=52) of the same compound?
**A.** 37

**Q.** What about the “Free of Angina (1-2 years), Percentage (%)” value ([1]; 2-year trial, n=52) of the same compound?
**A.** 71.2%

**Q.** What about the “New CVD Events: ACS, Number” value ([1]; 2-year trial, n=52) of the same compound?
**A.** 7

**Q.** And the “New CVD Events: ACS, Percentage (%)” value ([1]; 2-year trial, n=52)?
**A.** 13.5%

**Q.** And the “New CVD Events: AMI/Stroke/Death, Number” value ([1]; 2-year trial, n=52)?
**A.** 0

**Q.** What about the “New CVD Events: AMI/Stroke/Death, Percentage (%)” value ([1]; 2-year trial, n=52) of the same compound?
**A.** 0%

**Q.** And the “New CVD Events: None, Number” value ([1]; 2-year trial, n=52)?
**A.** 41

**Q.** And the “New CVD Events: None, Percentage (%)” value ([1]; 2-year trial, n=52)?
**A.** 79%

**Q.** And the “New CVD Events: Ventricular Arrhythmias, Number” value ([1]; 2-year trial, n=52)?
**A.** 5

**Q.** And the “New CVD Events: Ventricular Arrhythmias, Percentage (%)” value ([1]; 2-year trial, n=52)?
**A.** 9.6%

**Q.** And the “Reversion of Angina, Number” value ([1]; 2-year trial, n=52)?
**A.** 43

**Q.** And the “Reversion of Angina, Percentage (%)” value ([1]; 2-year trial, n=52)?
**A.** 82.7%

**Q.** And the “Subjects with Angina: Days for Improvement” value ([1]; 2-year trial, n=52, Amiloride 5 to 10 mg/day)?
**A.** 6.2 ± 3.5 days

**Q.** And the “ECG change, single subject FIG. 14A” value ([1]; Diabetic, inferior AMI, during admission in the Amiloride trial)?
**A.** improvement in the subject's antero-lateral ischemia

**Q.** What about the “ECG after withdrawal, single subject FIG. 14B” value ([1]; Diabetic, two months after withdrawal of Amiloride treatment) of the same compound?
**A.** ECG alterations marked with arrows indicative of acute coronary syndrome and ventricular arrhythmias

**Q.** And the “ECG change, single subject FIG. 12B” value ([1]; Person, 1-year post infarction, 5 months Amiloride, calcium and statins)?
**A.** significant ECG improvement of ST-segment, and T-waves (V1-V6)

**Q.** And the “ECG, single subject FIG. 12C” value ([1]; Person, 18 months post AMI, Amiloride, calcium and statins, no other medication)?
**A.** essentially a normal ECG trace

**Q.** And the “Duke Treadmill Scores, single subject FIG. 12C” value ([1]; Person, 18 months post AMI, Amiloride, calcium and statins, monohydrochloride, dihydrate)?
**A.** 6.23 and 5.49

**Q.** What about the “ECG change, single subject FIG. 13B” value ([1]; Person, diabetes, angina, 5-months of Amiloride and statins) of the same compound?
**A.** improvement of ischemic changes

**Q.** What about the “DT Score, single subject FIG. 13B” value ([1]; Person, 5-months of Amiloride and statins, score −3 before) of the same compound?
**A.** 2.3

**Q.** And the “ECG after withdrawal, single subject FIG. 13C” value ([1]; Person, after 6-months without Amiloride, optimal angina and diabetes medications)?
**A.** recurrence of ECG alterations

**Q.** What about the “ECG after re-start, single subject FIG. 13C” value ([1]; Person, three months after Amiloride was reinitiated) of the same compound?
**A.** normal without ischemic changes

**Q.** What about the “ECG change, single subject FIG. 11C” value ([1]; person, infarction, angina, heart failure, 2-months Amiloride (5 mg) and calcium plus other medications) of the same compound?
**A.** rapid reversion of ST-T alterations (V2-V6)

**Q.** And the “angina and heart failure symptoms, single subject FIG. 11C” value ([1]; person, 2-months Amiloride (5 mg) and calcium, monohydrochloride, dihydrate)?
**A.** free of angina or symptoms of heart failure; also recorded: free of angina and symptoms of heart failure

**Q.** What about the “Duke Treadmill Score, single subject FIG. 11C” value ([1]; person, 2-months Amiloride (5 mg) and calcium, score −3 before entering trial) of the same compound?
**A.** +4.3

**Q.** What about the Double-Product [2, 4] of the same compound?
**A.** 25700 ± 4633

**Q.** What about the “Peak Exercise BP, diastolic” value [2, 4] of the same compound?
**A.** 94 ± 10

**Q.** What about the “Peak Exercise BP, systolic” value [2, 4] of the same compound?
**A.** 177 ± 19

**Q.** What about the “Peak Exercise HR” value [2, 4] of the same compound?
**A.** 144 ± 19

**Q.** What about the “Exercise Time” value ([2]; 1-month trial, Amiloride 5 mg/d, N=14, P<0.05 vs placebo) of the same compound?
**A.** 7.95 ± 2.8 min

**Q.** And the “High Risk Value: Subjects (%)” value [2, 5]?
**A.** 35.7%

**Q.** And the “Low Risk Value: Subjects (%)” value [2, 5]?
**A.** 64.3%

**Q.** What about the “subjects with improved ST-T alterations of ischemia” value ([2]; 4 weeks, Amiloride 5 mg daily, 9 out of 14) of the same compound?
**A.** 64%

**Q.** And the “subjects free of angina” value ([2]; 4 weeks, Amiloride 5 mg daily, Twelve out of 14 subjects)?
**A.** 71%

**Q.** What about the “adverse episodes of cardiac arrhythmia” value ([2]; 4 weeks, Amiloride 5 mg daily, exercise treadmill test) of the same compound?
**A.** without any adverse episodes of cardiac arrhythmia

**Q.** And the “1-Month DTS (Duke Treadmill Score)” value ([2]; Amiloride 5 mg/d, N=14, Baseline DTS −2.28 ± 7.0)?
**A.** 7.90 ± 4.2

**Q.** And the “High Risk Value (DTS), changes from baseline to 1-month” value ([2]; Amiloride 5 mg/d, high risk subjects)?
**A.** *−3 ± −2.6

**Q.** What about the “Low Risk Value (DTS), changes from baseline to 1-month” value ([2]; Amiloride 5 mg/d, low risk subjects) of the same compound?
**A.** *8.6 ± 2.3

**Q.** What about the “hyperkalemia as secondary effect” value ([3]; as disclosed in various medical textbooks) of the same compound?
**A.** hyperkalemia is a common secondary effect

**Q.** And the hyperkalemia ([3]; intravenous doses of Amiloride (1 mg/Kg), subjects with chronic kidney disease, Levy Y. et al. 2008)?
**A.** absence of hyperkalemia

**Q.** What about the excretion ([3]; upon ingestion, humans) of the same compound?
**A.** excreted from the kidneys unchanged
